# Results published in ChEMBL document CHEMBL5303573, “Mapping human microbiome drug metabolism by gut bacteria and their genes” (Nature, 2019).
# Assay: The drug is tested on Bacteroides coprophilus strain: DSM18228 for biotransformation. The drug concentrations were measured before and after a 12-h incubation by liquid-chromatography-coupled mass spectrometry (LC–MS)
# Conditions: 2 µM
row,SMILES,Bacterial Biotransformation
1,CC#C[C@]1(O)CC[C@H]2[C@@H]3CCC4=CC(=O)CCC4=C3[C@@H](c3ccc(N(C)C)cc3)C[C@@]21C [MIFEPRISTONE],Compound NOT metabolized
2,CCCC(=O)Nc1ccc(OCC(O)CNC(C)C)c(C(C)=O)c1 (stereo not drawn) [ACEBUTOLOL],Compound NOT metabolized

# Assay: The drug is tested on Bacteroides dorei strain: DSM17855 for biotransformation. The drug concentrations were measured before and after a 12-h incubation by liquid-chromatography-coupled mass spectrometry (LC–MS)
# Conditions: phocaeicola dorei, 2 µM
row,SMILES,Bacterial Biotransformation
1,CC#C[C@]1(O)CC[C@H]2[C@@H]3CCC4=CC(=O)CCC4=C3[C@@H](c3ccc(N(C)C)cc3)C[C@@]21C [MIFEPRISTONE],Compound metabolized
2,CCCC(=O)Nc1ccc(OCC(O)CNC(C)C)c(C(C)=O)c1 (stereo not drawn) [ACEBUTOLOL],Compound NOT metabolized
3,CN1CCN(C2=Nc3cc(Cl)ccc3Nc3ccccc32)CC1 [CLOZAPINE],Compound NOT metabolized

# Assay: The drug is tested on Bacteroides ovatus strain: ATCC8483 for biotransformation. The drug concentrations were measured before and after a 12-h incubation by liquid-chromatography-coupled mass spectrometry (LC–MS)
# Conditions: 2 µM
row,SMILES,Bacterial Biotransformation
1,CCCC(=O)Nc1ccc(OCC(O)CNC(C)C)c(C(C)=O)c1 (stereo not drawn) [ACEBUTOLOL],Compound NOT metabolized
2,CN1CCN(C2=Nc3cc(Cl)ccc3Nc3ccccc32)CC1 [CLOZAPINE],Compound NOT metabolized

# Assay: The drug is tested on Bacteroides pectinophilus strain: ATCC43243 for biotransformation. The drug concentrations were measured before and after a 12-h incubation by liquid-chromatography-coupled mass spectrometry (LC–MS)
# Conditions: 2 µM
row,SMILES,Bacterial Biotransformation
1,CC#C[C@]1(O)CC[C@H]2[C@@H]3CCC4=CC(=O)CCC4=C3[C@@H](c3ccc(N(C)C)cc3)C[C@@]21C [MIFEPRISTONE],Compound NOT metabolized
2,CCCC(=O)Nc1ccc(OCC(O)CNC(C)C)c(C(C)=O)c1 (stereo not drawn) [ACEBUTOLOL],Compound NOT metabolized
3,CN1CCN(C2=Nc3cc(Cl)ccc3Nc3ccccc32)CC1 [CLOZAPINE],Compound NOT metabolized

# Assay: The drug is tested on Bacteroides uniformis strain: ATCC8492 for biotransformation. The drug concentrations were measured before and after a 12-h incubation by liquid-chromatography-coupled mass spectrometry (LC–MS)
# Conditions: 2 µM
row,SMILES,Bacterial Biotransformation
1,CC#C[C@]1(O)CC[C@H]2[C@@H]3CCC4=CC(=O)CCC4=C3[C@@H](c3ccc(N(C)C)cc3)C[C@@]21C [MIFEPRISTONE],Compound NOT metabolized
2,CCCC(=O)Nc1ccc(OCC(O)CNC(C)C)c(C(C)=O)c1 (stereo not drawn) [ACEBUTOLOL],Compound NOT metabolized
3,CN1CCN(C2=Nc3cc(Cl)ccc3Nc3ccccc32)CC1 [CLOZAPINE],Compound NOT metabolized

# Assay: The drug is tested on Parabacteroides merdae strain: ATCC43184 for biotransformation. The drug concentrations were measured before and after a 12-h incubation by liquid-chromatography-coupled mass spectrometry (LC–MS)
# Conditions: 2 µM
row,SMILES,Bacterial Biotransformation
1,CC#C[C@]1(O)CC[C@H]2[C@@H]3CCC4=CC(=O)CCC4=C3[C@@H](c3ccc(N(C)C)cc3)C[C@@]21C [MIFEPRISTONE],Compound NOT metabolized
2,CCCC(=O)Nc1ccc(OCC(O)CNC(C)C)c(C(C)=O)c1 (stereo not drawn) [ACEBUTOLOL],Compound NOT metabolized
3,CN1CCN(C2=Nc3cc(Cl)ccc3Nc3ccccc32)CC1 [CLOZAPINE],Compound NOT metabolized

# Assay: The drug is tested on Anaerococcus hydrogenalis strain: DSM7454 for biotransformation. The drug concentrations were measured before and after a 12-h incubation by liquid-chromatography-coupled mass spectrometry (LC–MS)
# Conditions: 2 µM
row,SMILES,Bacterial Biotransformation
1,CC#C[C@]1(O)CC[C@H]2[C@@H]3CCC4=CC(=O)CCC4=C3[C@@H](c3ccc(N(C)C)cc3)C[C@@]21C [MIFEPRISTONE],Compound NOT metabolized
2,CCCC(=O)Nc1ccc(OCC(O)CNC(C)C)c(C(C)=O)c1 (stereo not drawn) [ACEBUTOLOL],Compound NOT metabolized
3,CN1CCN(C2=Nc3cc(Cl)ccc3Nc3ccccc32)CC1 [CLOZAPINE],Compound NOT metabolized

# Assay: The drug is tested on Anaerotruncus colihominis strain: DSM17241 for biotransformation. The drug concentrations were measured before and after a 12-h incubation by liquid-chromatography-coupled mass spectrometry (LC–MS)
# Conditions: 2 µM
row,SMILES,Bacterial Biotransformation
1,CC#C[C@]1(O)CC[C@H]2[C@@H]3CCC4=CC(=O)CCC4=C3[C@@H](c3ccc(N(C)C)cc3)C[C@@]21C [MIFEPRISTONE],Compound NOT metabolized
2,CCCC(=O)Nc1ccc(OCC(O)CNC(C)C)c(C(C)=O)c1 (stereo not drawn) [ACEBUTOLOL],Compound NOT metabolized

# Assay: The drug is tested on Clostridium ramosum strain: DSM1402 for biotransformation. The drug concentrations were measured before and after a 12-h incubation by liquid-chromatography-coupled mass spectrometry (LC–MS)
# Conditions: thomasclavelia ramosa, 2 µM
row,SMILES,Bacterial Biotransformation
1,CC#C[C@]1(O)CC[C@H]2[C@@H]3CCC4=CC(=O)CCC4=C3[C@@H](c3ccc(N(C)C)cc3)C[C@@]21C [MIFEPRISTONE],Compound NOT metabolized
2,CCCC(=O)Nc1ccc(OCC(O)CNC(C)C)c(C(C)=O)c1 (stereo not drawn) [ACEBUTOLOL],Compound NOT metabolized
3,CN1CCN(C2=Nc3cc(Cl)ccc3Nc3ccccc32)CC1 [CLOZAPINE],Compound NOT metabolized

# Assay: The drug is tested on Enterococcus faecalis strain: V583 for biotransformation. The drug concentrations were measured before and after a 12-h incubation by liquid-chromatography-coupled mass spectrometry (LC–MS)
# Conditions: 2 µM
row,SMILES,Bacterial Biotransformation
1,CC#C[C@]1(O)CC[C@H]2[C@@H]3CCC4=CC(=O)CCC4=C3[C@@H](c3ccc(N(C)C)cc3)C[C@@]21C [MIFEPRISTONE],Compound metabolized
2,CCCC(=O)Nc1ccc(OCC(O)CNC(C)C)c(C(C)=O)c1 (stereo not drawn) [ACEBUTOLOL],Compound NOT metabolized

# Assay: The drug is tested on Eubacterium rectale strain: ATCC33656 for biotransformation. The drug concentrations were measured before and after a 12-h incubation by liquid-chromatography-coupled mass spectrometry (LC–MS)
# Conditions: agathobacter rectalis, 2 µM
row,SMILES,Bacterial Biotransformation
1,CC#C[C@]1(O)CC[C@H]2[C@@H]3CCC4=CC(=O)CCC4=C3[C@@H](c3ccc(N(C)C)cc3)C[C@@]21C [MIFEPRISTONE],Compound NOT metabolized
2,CCCC(=O)Nc1ccc(OCC(O)CNC(C)C)c(C(C)=O)c1 (stereo not drawn) [ACEBUTOLOL],Compound NOT metabolized
3,CN1CCN(C2=Nc3cc(Cl)ccc3Nc3ccccc32)CC1 [CLOZAPINE],Compound NOT metabolized

# Assay: The drug is tested on Ruminococcus gnavus strain: ATCC29149 for biotransformation. The drug concentrations were measured before and after a 12-h incubation by liquid-chromatography-coupled mass spectrometry (LC–MS)
# Conditions: mediterraneibacter gnavus, 2 µM
row,SMILES,Bacterial Biotransformation
1,CC#C[C@]1(O)CC[C@H]2[C@@H]3CCC4=CC(=O)CCC4=C3[C@@H](c3ccc(N(C)C)cc3)C[C@@]21C [MIFEPRISTONE],Compound NOT metabolized
2,CCCC(=O)Nc1ccc(OCC(O)CNC(C)C)c(C(C)=O)c1 (stereo not drawn) [ACEBUTOLOL],Compound NOT metabolized
3,CN1CCN(C2=Nc3cc(Cl)ccc3Nc3ccccc32)CC1 [CLOZAPINE],Compound NOT metabolized

# Assay: The drug is tested on Ruminococcus torques strain: ATCC27756 for biotransformation. The drug concentrations were measured before and after a 12-h incubation by liquid-chromatography-coupled mass spectrometry (LC–MS)
# Type: ADME
# Parameters: dose 2 uM, timepoint 0 vs 12 hours
# Conditions: 2 µM
row,SMILES,Bacterial Biotransformation
1,CC#C[C@]1(O)CC[C@H]2[C@@H]3CCC4=CC(=O)CCC4=C3[C@@H](c3ccc(N(C)C)cc3)C[C@@]21C [MIFEPRISTONE],Compound NOT metabolized
2,CCCC(=O)Nc1ccc(OCC(O)CNC(C)C)c(C(C)=O)c1 (stereo not drawn) [ACEBUTOLOL],Compound NOT metabolized
3,CN1CCN(C2=Nc3cc(Cl)ccc3Nc3ccccc32)CC1 [CLOZAPINE],Compound NOT metabolized

# Assay: The drug is tested on Edwardsiella tarda strain: ATCC23685 for biotransformation. The drug concentrations were measured before and after a 12-h incubation by liquid-chromatography-coupled mass spectrometry (LC–MS)
# Conditions: 2 µM
row,SMILES,Bacterial Biotransformation
1,CC#C[C@]1(O)CC[C@H]2[C@@H]3CCC4=CC(=O)CCC4=C3[C@@H](c3ccc(N(C)C)cc3)C[C@@]21C [MIFEPRISTONE],Compound NOT metabolized
2,CCCC(=O)Nc1ccc(OCC(O)CNC(C)C)c(C(C)=O)c1 (stereo not drawn) [ACEBUTOLOL],Compound NOT metabolized
3,CN1CCN(C2=Nc3cc(Cl)ccc3Nc3ccccc32)CC1 [CLOZAPINE],Compound NOT metabolized

# Assay: The drug is tested on Providencia stuartii strain: ATCC25827 for biotransformation. The drug concentrations were measured before and after a 12-h incubation by liquid-chromatography-coupled mass spectrometry (LC–MS)
# Conditions: 2 µM
row,SMILES,Bacterial Biotransformation
1,CC#C[C@]1(O)CC[C@H]2[C@@H]3CCC4=CC(=O)CCC4=C3[C@@H](c3ccc(N(C)C)cc3)C[C@@]21C [MIFEPRISTONE],Compound NOT metabolized
2,CCCC(=O)Nc1ccc(OCC(O)CNC(C)C)c(C(C)=O)c1 (stereo not drawn) [ACEBUTOLOL],Compound NOT metabolized
3,CN1CCN(C2=Nc3cc(Cl)ccc3Nc3ccccc32)CC1 [CLOZAPINE],Compound NOT metabolized

# Conditions: bifidobacterium adolescentis, 12 h, 2 µM
# Description: The drug is tested on Bifidobacterium adolescentis strain: ATCC 15703 for biotransformation. The drug concentrations were measured before and after a 12-h incubation by liquid-chromatography-coupled mass spectrometry (LC–MS)
row,SMILES,Bacterial Biotransformation
1,CC#C[C@]1(O)CC[C@H]2[C@@H]3CCC4=CC(=O)CCC4=C3[C@@H](c3ccc(N(C)C)cc3)C[C@@]21C [MIFEPRISTONE],Compound NOT metabolized
2,CCCC(=O)Nc1ccc(OCC(O)CNC(C)C)c(C(C)=O)c1 (stereo not drawn) [ACEBUTOLOL],Compound NOT metabolized
3,CN1CCN(C2=Nc3cc(Cl)ccc3Nc3ccccc32)CC1 [CLOZAPINE],Compound NOT metabolized

# Conditions: bacteroides fragilis, 12 h, 2 µM
# Description: The drug is tested on Bacteroides fragilis strain: NCTC 9343 for biotransformation. The drug concentrations were measured before and after a 12-h incubation by liquid-chromatography-coupled mass spectrometry (LC–MS)
row,SMILES,Bacterial Biotransformation
1,CC#C[C@]1(O)CC[C@H]2[C@@H]3CCC4=CC(=O)CCC4=C3[C@@H](c3ccc(N(C)C)cc3)C[C@@]21C [MIFEPRISTONE],Compound metabolized
2,CCCC(=O)Nc1ccc(OCC(O)CNC(C)C)c(C(C)=O)c1 (stereo not drawn) [ACEBUTOLOL],Compound NOT metabolized
3,CN1CCN(C2=Nc3cc(Cl)ccc3Nc3ccccc32)CC1 [CLOZAPINE],Compound NOT metabolized

# Conditions: parabacteroides johnsonii, 12 h, 2 µM
# Description: The drug is tested on Parabacteroides johnsonii strain: DSM18315 for biotransformation. The drug concentrations were measured before and after a 12-h incubation by liquid-chromatography-coupled mass spectrometry (LC–MS)
row,SMILES,Bacterial Biotransformation
1,CC#C[C@]1(O)CC[C@H]2[C@@H]3CCC4=CC(=O)CCC4=C3[C@@H](c3ccc(N(C)C)cc3)C[C@@]21C [MIFEPRISTONE],Compound NOT metabolized
2,CCCC(=O)Nc1ccc(OCC(O)CNC(C)C)c(C(C)=O)c1 (stereo not drawn) [ACEBUTOLOL],Compound NOT metabolized
3,CN1CCN(C2=Nc3cc(Cl)ccc3Nc3ccccc32)CC1 [CLOZAPINE],Compound NOT metabolized

# Conditions: limosilactobacillus reuteri cf48-3a, 12 h, 2 µM
# Description: The drug is tested on Lactobacillus reuteri CF48-3A strain: BEI HM-102 for biotransformation. The drug concentrations were measured before and after a 12-h incubation by liquid-chromatography-coupled mass spectrometry (LC–MS)
row,SMILES,Bacterial Biotransformation
1,CC#C[C@]1(O)CC[C@H]2[C@@H]3CCC4=CC(=O)CCC4=C3[C@@H](c3ccc(N(C)C)cc3)C[C@@]21C [MIFEPRISTONE],Compound NOT metabolized
2,CCCC(=O)Nc1ccc(OCC(O)CNC(C)C)c(C(C)=O)c1 (stereo not drawn) [ACEBUTOLOL],Compound NOT metabolized
3,CN1CCN(C2=Nc3cc(Cl)ccc3Nc3ccccc32)CC1 [CLOZAPINE],Compound NOT metabolized
